# The kinase profiling compilation of Christmann-Franck et al. (2016)
# Legend:
# Assay in all cases: radiometric filter-binding kinase assay, Kinase HotSpot
# Details in all cases: compound 0.5 µM; ATP 10 µM
# RPS6KA1 KD1 KD2 (human) = RPS6KA1 KD1 KD2 (human) (UniProt Q15418)
# PLK2 (human) = PLK2 (human) (UniProt Q9NYY3)
# AURKB (human) = AURKB (human) (UniProt Q96GD4)
# PDGFRB (human) = PDGFRB (human) (UniProt P09619)
# PDPK1 (human) = PDPK1 (human) (UniProt O15530)
# DAPK2 (human) = DAPK2 (human) (UniProt Q9UIK4)
# TBK1 (human) = TBK1 (human) (UniProt Q9UHD2)
# ERBB2 (human) = ERBB2 (human) (UniProt P04626)
# MAP3K8 (human) = MAP3K8 (human) (UniProt P41279)
# PRKCE (human) = PRKCE (human) (UniProt Q02156)
# MARK1 (human) = MARK1 (human) (UniProt Q9P0L2)
# CLK2 (human) = CLK2 (human) (UniProt P49760)
# WNK2 (human) = WNK2 (human) (UniProt Q9Y3S1)
# MARK2 (human) = MARK2 (human) (UniProt Q7KZI7)
# MAPK1 (human) = MAPK1 (human) (UniProt P28482)
# PAK3 (human) = PAK3 (human) (UniProt O75914)
# FGFR1 (human) = FGFR1 (human) (UniProt P11362)
# PIM2 (human) = PIM2 (human) (UniProt Q9P1W9)
# MAPK12 (human) = MAPK12 (human) (UniProt P53778)
# MAPK14 (human) = MAPK14 (human) (UniProt Q16539)
# PRKCB1 (human) = PRKCB1 (human) (UniProt P05771)
# GRK6 (human) = GRK6 (human) (UniProt P43250)
# PRKD3 (human) = PRKD3 (human) (UniProt O94806)
# PLK1 (human) = PLK1 (human) (UniProt P53350)
# PRKACA (human) = PRKACA (human) (UniProt P17612)
# ULK2 (human) = ULK2 (human) (UniProt Q8IYT8)
# RPS6KB1 (human) = RPS6KB1 (human) (UniProt P23443)
# MUSK (human) = MUSK (human) (UniProt O15146)
# EPHB1 (human) = EPHB1 (human) (UniProt P54762)
# FLT1 (human) = FLT1 (human) (UniProt P17948)
# TYRO3 (human) = TYRO3 (human) (UniProt Q06418)
# INSRR (human) = INSRR (human) (UniProt P14616)
# FYN (human) = FYN (human) (UniProt P06241)
# FGFR2 (human) = FGFR2 (human) (UniProt P21802)
# MAPK13 (human) = MAPK13 (human) (UniProt O15264)
# TSSK2 (human) = TSSK2 (human) (UniProt Q96PF2)
# AURKA (human) = AURKA (human) (UniProt O14965)
# INSR (human) = INSR (human) (UniProt P06213)
# MAPKAPK5 (human) = MAPKAPK5 (human) (UniProt Q8IW41)
# PHKG2 (human) = PHKG2 (human) (UniProt P15735)
# JAK2 JH1 JH2 (human) = JAK2 JH1 JH2 (human) (UniProt O60674)
# GSK3A (human) = GSK3A (human) (UniProt P49840)
# MUSK (human), sequence (O15146 whole entry, looked up): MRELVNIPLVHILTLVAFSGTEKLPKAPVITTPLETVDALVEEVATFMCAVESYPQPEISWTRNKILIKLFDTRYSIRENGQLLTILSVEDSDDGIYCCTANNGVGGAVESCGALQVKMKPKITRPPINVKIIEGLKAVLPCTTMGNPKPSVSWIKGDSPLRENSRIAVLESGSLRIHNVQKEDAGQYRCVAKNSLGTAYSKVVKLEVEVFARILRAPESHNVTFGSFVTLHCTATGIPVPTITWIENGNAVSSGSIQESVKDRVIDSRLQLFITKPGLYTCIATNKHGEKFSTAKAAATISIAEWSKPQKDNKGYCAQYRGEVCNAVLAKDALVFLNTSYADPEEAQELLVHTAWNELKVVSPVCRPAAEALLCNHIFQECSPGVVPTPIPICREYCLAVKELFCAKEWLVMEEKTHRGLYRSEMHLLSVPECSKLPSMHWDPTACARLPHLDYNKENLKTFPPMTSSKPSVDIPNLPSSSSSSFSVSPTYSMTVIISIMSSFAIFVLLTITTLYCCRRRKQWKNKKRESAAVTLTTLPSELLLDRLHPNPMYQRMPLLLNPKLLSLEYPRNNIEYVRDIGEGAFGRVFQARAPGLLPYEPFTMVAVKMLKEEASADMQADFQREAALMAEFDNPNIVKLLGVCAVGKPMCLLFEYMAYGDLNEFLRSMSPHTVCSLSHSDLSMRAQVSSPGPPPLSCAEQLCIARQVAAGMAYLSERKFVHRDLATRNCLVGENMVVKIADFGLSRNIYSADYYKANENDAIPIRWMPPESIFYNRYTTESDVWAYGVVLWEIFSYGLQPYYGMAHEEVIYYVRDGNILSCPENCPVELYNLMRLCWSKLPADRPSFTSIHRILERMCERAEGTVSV
# ULK2 (human), sequence (Q8IYT8 whole entry, looked up): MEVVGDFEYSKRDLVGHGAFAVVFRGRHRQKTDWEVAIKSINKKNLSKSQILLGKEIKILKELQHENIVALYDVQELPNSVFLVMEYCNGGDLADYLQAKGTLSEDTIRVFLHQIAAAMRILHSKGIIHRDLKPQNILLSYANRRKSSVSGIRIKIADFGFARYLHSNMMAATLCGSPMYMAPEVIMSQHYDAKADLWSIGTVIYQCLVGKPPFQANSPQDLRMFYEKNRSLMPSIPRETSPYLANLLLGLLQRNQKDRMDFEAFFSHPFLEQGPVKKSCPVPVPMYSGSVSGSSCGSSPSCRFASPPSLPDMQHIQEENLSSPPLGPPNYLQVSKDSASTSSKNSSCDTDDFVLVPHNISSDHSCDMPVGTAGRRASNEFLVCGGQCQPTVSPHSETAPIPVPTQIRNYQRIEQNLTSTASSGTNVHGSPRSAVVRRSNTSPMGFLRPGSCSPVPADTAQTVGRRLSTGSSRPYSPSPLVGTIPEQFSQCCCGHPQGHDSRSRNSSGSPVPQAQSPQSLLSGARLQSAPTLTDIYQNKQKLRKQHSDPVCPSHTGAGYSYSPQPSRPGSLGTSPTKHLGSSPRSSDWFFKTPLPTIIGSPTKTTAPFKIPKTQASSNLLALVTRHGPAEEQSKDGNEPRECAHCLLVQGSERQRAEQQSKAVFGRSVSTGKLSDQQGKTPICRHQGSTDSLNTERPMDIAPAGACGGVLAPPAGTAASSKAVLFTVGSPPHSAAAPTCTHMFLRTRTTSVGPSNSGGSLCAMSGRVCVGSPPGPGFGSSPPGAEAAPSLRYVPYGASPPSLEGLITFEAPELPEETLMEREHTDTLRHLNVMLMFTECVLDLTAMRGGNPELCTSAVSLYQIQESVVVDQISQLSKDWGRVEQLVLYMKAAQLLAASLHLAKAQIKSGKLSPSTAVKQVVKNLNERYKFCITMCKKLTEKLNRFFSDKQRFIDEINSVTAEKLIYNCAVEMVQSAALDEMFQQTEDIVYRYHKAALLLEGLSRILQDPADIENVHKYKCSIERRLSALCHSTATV
# ERBB2 (human), sequence (P04626 whole entry, looked up): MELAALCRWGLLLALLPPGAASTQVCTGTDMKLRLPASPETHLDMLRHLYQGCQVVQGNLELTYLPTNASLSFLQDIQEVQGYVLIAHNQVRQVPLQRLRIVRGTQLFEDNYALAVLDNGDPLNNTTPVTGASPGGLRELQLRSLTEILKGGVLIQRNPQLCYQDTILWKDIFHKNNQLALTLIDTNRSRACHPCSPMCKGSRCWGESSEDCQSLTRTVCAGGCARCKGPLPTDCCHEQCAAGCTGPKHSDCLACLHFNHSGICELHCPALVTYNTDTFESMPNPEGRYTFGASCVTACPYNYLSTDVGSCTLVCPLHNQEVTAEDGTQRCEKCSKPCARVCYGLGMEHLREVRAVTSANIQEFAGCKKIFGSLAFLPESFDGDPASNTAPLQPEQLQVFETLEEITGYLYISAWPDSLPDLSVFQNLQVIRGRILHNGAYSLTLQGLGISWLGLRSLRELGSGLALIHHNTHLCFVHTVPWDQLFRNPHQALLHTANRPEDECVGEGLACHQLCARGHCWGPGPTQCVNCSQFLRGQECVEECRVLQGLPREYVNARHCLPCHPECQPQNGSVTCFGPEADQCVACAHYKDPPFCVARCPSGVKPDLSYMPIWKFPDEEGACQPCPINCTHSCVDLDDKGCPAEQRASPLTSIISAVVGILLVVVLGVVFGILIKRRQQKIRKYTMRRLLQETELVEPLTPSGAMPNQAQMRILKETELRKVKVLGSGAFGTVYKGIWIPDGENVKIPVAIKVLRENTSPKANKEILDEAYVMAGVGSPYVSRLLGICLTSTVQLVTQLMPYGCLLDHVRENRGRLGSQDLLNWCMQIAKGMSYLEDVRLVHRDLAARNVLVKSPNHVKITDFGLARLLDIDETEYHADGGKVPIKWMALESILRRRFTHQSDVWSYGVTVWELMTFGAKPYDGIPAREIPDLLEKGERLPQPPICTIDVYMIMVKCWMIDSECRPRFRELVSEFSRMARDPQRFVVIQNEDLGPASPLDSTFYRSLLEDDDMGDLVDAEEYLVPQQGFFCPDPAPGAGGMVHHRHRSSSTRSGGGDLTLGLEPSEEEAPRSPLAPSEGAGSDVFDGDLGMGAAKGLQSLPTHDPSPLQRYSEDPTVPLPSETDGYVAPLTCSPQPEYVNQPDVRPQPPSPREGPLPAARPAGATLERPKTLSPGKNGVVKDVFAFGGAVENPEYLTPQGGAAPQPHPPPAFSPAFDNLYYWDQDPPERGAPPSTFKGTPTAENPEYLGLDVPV
# GRK6 (human), sequence (P43250 whole entry, looked up): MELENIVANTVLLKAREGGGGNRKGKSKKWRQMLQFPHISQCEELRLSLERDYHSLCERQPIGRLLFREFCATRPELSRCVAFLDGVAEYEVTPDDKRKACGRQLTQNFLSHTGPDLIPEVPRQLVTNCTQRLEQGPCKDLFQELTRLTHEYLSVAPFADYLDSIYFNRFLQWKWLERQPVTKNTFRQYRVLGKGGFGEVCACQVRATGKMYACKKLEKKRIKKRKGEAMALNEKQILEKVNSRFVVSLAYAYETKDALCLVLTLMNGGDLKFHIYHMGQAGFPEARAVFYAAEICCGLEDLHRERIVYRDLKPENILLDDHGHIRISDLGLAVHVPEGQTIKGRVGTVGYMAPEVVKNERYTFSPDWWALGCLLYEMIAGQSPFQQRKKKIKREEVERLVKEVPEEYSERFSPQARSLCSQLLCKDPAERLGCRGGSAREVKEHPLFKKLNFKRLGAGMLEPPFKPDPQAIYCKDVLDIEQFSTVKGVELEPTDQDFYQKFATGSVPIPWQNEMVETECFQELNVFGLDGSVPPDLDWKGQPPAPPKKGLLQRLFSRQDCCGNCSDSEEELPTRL
# FYN (human), sequence (P06241 whole entry, looked up): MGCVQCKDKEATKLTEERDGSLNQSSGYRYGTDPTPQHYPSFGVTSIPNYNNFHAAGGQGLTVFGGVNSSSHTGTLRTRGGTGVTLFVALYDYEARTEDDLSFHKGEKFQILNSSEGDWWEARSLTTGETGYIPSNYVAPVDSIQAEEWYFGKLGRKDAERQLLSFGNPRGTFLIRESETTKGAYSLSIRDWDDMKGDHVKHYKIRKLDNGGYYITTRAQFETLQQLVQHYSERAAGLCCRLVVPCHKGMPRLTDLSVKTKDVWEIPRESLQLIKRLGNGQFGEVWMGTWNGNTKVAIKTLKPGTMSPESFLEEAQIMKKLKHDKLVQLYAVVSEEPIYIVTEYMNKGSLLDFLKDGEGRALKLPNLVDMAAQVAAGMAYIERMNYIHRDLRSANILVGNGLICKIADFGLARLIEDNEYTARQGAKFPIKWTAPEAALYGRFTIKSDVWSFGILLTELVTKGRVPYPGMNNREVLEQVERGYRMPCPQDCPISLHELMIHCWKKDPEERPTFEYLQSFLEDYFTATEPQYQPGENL
# RPS6KA1 KD1 KD2 (human), sequence (Q15418 whole entry, looked up): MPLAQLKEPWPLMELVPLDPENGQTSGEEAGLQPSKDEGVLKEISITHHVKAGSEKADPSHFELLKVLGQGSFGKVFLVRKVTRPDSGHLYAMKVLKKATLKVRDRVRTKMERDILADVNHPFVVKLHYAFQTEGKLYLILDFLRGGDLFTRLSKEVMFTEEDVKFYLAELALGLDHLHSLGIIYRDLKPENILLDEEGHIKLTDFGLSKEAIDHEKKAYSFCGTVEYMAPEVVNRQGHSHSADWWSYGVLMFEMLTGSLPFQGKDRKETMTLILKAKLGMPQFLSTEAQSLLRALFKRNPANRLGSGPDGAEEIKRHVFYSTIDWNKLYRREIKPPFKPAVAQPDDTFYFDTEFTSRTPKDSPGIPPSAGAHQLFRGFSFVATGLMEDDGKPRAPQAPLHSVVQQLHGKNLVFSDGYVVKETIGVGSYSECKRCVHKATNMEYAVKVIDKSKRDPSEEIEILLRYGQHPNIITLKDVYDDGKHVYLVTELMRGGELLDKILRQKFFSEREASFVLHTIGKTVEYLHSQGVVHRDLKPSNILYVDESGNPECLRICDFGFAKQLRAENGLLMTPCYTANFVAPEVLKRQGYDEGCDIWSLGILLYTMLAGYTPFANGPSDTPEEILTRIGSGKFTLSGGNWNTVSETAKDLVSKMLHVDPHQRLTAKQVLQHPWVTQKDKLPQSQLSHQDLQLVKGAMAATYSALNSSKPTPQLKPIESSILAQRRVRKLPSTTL
compound,measurement,setting,value
CC(=O)c1ccc(N2CCOCC2)cc1O,residual activity,RPS6KA1 KD1 KD2 (human),92.4%
same,residual activity,PLK2 (human),104%
same,residual activity,AURKB (human),91.4%
same,residual activity,PDGFRB (human),105%
same,residual activity,PDPK1 (human),111%
same,residual activity,DAPK2 (human),106%
same,residual activity,TBK1 (human),99.1%
same,residual activity,ERBB2 (human),98.2%
same,residual activity,MAP3K8 (human),99.4%
same,residual activity,PRKCE (human),93.4%
same,residual activity,MARK1 (human),96.7%
same,residual activity,CLK2 (human),102%
same,residual activity,WNK2 (human),101%
same,residual activity,MARK2 (human),107%
same,residual activity,MAPK1 (human),97.6%
same,residual activity,PAK3 (human),93.9%
same,residual activity,FGFR1 (human),91.4%
same,residual activity,PIM2 (human),117%
same,residual activity,MAPK12 (human),78.7%
same,residual activity,MAPK14 (human),97.1%
same,residual activity,PRKCB1 (human),96.3%
same,residual activity,GRK6 (human),100%
same,residual activity,PRKD3 (human),98.4%
same,residual activity,PLK1 (human),94.3%
same,residual activity,PRKACA (human),102%
same,residual activity,ULK2 (human),114%
same,residual activity,RPS6KB1 (human),95.2%
same,residual activity,MUSK (human),93.9%
same,residual activity,EPHB1 (human),103%
same,residual activity,FLT1 (human),97.1%
same,residual activity,TYRO3 (human),89.1%
same,residual activity,INSRR (human),96.7%
same,residual activity,FYN (human),103%
same,residual activity,FGFR2 (human),108%
same,residual activity,MAPK13 (human),104%
same,residual activity,TSSK2 (human),102%
same,residual activity,AURKA (human),132%
same,residual activity,INSR (human),94%
same,residual activity,MAPKAPK5 (human),96.9%
same,residual activity,PHKG2 (human),98.1%
same,residual activity,JAK2 JH1 JH2 (human),93.6%
same,residual activity,GSK3A (human),101%
c1ccc(-c2n[nH]cc2-c2ccnc3ccccc23)nc1,residual activity,RPS6KA1 KD1 KD2 (human),88.1%
same,residual activity,PLK2 (human),98.9%
same,residual activity,AURKB (human),96%
same,residual activity,PDGFRB (human),106%
same,residual activity,PDPK1 (human),93.8%
same,residual activity,DAPK2 (human),102%
same,residual activity,TBK1 (human),92.6%
same,residual activity,ERBB2 (human),106%
same,residual activity,MAP3K8 (human),91.1%
same,residual activity,PRKCE (human),101%
same,residual activity,MARK1 (human),79.2%
same,residual activity,CLK2 (human),99.4%
same,residual activity,WNK2 (human),49.2%
same,residual activity,MARK2 (human),102%
same,residual activity,MAPK1 (human),108%
same,residual activity,PAK3 (human),99.7%
same,residual activity,FGFR1 (human),94.2%
same,residual activity,PIM2 (human),115%
same,residual activity,MAPK12 (human),106%
same,residual activity,MAPK14 (human),96%
same,residual activity,PRKCB1 (human),102%
same,residual activity,GRK6 (human),94.6%
same,residual activity,PRKD3 (human),56.1%
same,residual activity,PLK1 (human),102%
same,residual activity,PRKACA (human),107%
same,residual activity,ULK2 (human),95.6%
same,residual activity,RPS6KB1 (human),106%
same,residual activity,MUSK (human),93.4%
same,residual activity,EPHB1 (human),98.7%
same,residual activity,FLT1 (human),81.4%
same,residual activity,TYRO3 (human),124%
same,residual activity,INSRR (human),101%
same,residual activity,FYN (human),110%
same,residual activity,FGFR2 (human),110%
same,residual activity,MAPK13 (human),110%
same,residual activity,TSSK2 (human),83.5%
same,residual activity,AURKA (human),95.4%
same,residual activity,INSR (human),86.7%
same,residual activity,MAPKAPK5 (human),95.6%
same,residual activity,PHKG2 (human),97.7%
same,residual activity,JAK2 JH1 JH2 (human),107%
same,residual activity,GSK3A (human),95.1%
